# From PMC6272448, “Synthesis, ^18F-Radiolabelling and Biological Characterization of Novel Fluoroalkylated Triazine Derivatives for in Vivo Imaging of Phosphodiesterase 2A in Brain via Positron Emission Tomography” (Molecules, 2015)
# Target: T1, PDE2A (Mus musculus, UniProt Q922S4)
# T1 construct: from tissue; host or cells: living female CD-1 mice (brain, in vivo)
# T1 sequence (Q922S4 1-939): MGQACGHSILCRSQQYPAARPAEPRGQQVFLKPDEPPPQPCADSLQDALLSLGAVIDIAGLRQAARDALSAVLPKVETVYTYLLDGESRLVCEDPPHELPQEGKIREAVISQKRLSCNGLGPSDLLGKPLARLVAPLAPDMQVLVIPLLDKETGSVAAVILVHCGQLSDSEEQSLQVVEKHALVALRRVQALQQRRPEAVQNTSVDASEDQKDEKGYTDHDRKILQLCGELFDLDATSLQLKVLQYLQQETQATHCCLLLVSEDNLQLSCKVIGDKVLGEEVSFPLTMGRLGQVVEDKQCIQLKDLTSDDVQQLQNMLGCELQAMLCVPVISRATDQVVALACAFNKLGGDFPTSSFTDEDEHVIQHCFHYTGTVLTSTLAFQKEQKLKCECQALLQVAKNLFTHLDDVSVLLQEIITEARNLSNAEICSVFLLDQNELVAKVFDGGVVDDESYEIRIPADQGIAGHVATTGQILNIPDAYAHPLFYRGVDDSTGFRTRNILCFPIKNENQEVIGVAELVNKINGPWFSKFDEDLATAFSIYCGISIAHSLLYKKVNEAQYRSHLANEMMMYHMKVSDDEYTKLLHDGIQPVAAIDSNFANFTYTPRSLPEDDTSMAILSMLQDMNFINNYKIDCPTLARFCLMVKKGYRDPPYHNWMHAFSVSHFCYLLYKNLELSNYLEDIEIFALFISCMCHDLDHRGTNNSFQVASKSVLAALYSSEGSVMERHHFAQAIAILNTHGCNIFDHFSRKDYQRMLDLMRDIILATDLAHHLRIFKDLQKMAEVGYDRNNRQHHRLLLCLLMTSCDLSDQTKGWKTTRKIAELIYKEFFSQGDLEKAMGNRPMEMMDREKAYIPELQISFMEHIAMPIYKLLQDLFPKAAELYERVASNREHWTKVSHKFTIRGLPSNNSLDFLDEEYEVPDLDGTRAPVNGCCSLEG
# Test: small-animal PET/MR baseline studies in mice
# Type: in vivo
# Settings: CD-1 mice, i.v. 9.7 ± 1.3 MBq, 0-55 min p.i., n = 4
# Description: For PET/MR baseline studies of [^18F]TA3 in anaesthetized CD-1 mice, the radioligand was injected intravenously (9.7 ± 1.3 MBq, SAEOS ~70 GBq/µmol, n = 4), and whole body scans were performed for 60 min in listmode with a Mediso nanoScan PET/MR scanner followed by dynamic reconstruction. Time-activity curves (TACs) were generated for regions of interest such as whole brain, striatum, and cerebellum (Figure 8).
# Female CD-1 mice (n = 4; age: 8 weeks; weight: 28.8 ± 1.2 g; supplier: Medizinisch-Experimentelles Zentrum Leipzig, Leipzig, Germany) were housed under a 12 h:12 h light-dark cycle at 26 °C in a vented animal cabinet. The animals received an injection of 9.7 ± 1.3 MBq of [^18F]TA3 into the tail vein followed by a 60 min PET/MR scan (Mediso nanoScan®, Budapest, Hungary). Each PET image was corrected for random coincidences, dead time, scatter and attenuation (AC), based on a whole body (WB) MR scan.
# The reconstruction parameters for the list mode data are: 3D-ordered subset expectation maximization (OSEM), 4 iterations, 6 subsets, energy window: 400–600 keV, coincidence mode: 1–5, ring difference: 81. […]
# The respective brain regions were identified using the MR information from the GRE scan. The activity data is expressed as mean standardized uptake value (SUV) of the overall ROI.
compound,measurement,value
COc1ccc2nnc3c(C)nc(-c4cc(OCCC[18F])ccc4F)n3c2n1 [[^18F]TA3],time-activity curve in cerebellum,constantly increased uptake in the cerebellum
same,time-activity curve in striatum,fast wash out of activity from the striatum
